Results: patent US8614201B2 (Janssen Pharmaceutica NV, priority 2009, dated 2013)

Target: Human TRPA1 (Homo sapiens, UniProt O75762)
Test: Assay 1: In vitro cellular testing of TRPA1 modulation (CHO-TREx, Fluo-3 calcium fluorescence, AITC agonist)
Assay type: cell-based
Set-up: expressed in transfected cells; host or cells: CHO-TREx cells (Invitrogen), vector pcDNA4/TO
Details: CHO-TREx cells expressing human TRPA1; Fluo-3 fluorescence (FLIPR/Tetra); agonist 15 μM allyl isothiocyanate (AITC); 30 minute antagonist incubation
Summary of the method: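 Tetracycline-induced CHO-TREx cells stably expressing human TRPA1, loaded with 4 μM Fluo-3 AM, preincubated 30 min with compound (serial dilution typically from 10 μM, three-fold steps) in HEPES saline pH 7.4. Fluorescence change over 3 min after 15 μM AITC; IC50 from Hill fit versus no-antagonist and 10 μM ruthenium red controls.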

Chain of Human TRPA1 (O75762 whole entry): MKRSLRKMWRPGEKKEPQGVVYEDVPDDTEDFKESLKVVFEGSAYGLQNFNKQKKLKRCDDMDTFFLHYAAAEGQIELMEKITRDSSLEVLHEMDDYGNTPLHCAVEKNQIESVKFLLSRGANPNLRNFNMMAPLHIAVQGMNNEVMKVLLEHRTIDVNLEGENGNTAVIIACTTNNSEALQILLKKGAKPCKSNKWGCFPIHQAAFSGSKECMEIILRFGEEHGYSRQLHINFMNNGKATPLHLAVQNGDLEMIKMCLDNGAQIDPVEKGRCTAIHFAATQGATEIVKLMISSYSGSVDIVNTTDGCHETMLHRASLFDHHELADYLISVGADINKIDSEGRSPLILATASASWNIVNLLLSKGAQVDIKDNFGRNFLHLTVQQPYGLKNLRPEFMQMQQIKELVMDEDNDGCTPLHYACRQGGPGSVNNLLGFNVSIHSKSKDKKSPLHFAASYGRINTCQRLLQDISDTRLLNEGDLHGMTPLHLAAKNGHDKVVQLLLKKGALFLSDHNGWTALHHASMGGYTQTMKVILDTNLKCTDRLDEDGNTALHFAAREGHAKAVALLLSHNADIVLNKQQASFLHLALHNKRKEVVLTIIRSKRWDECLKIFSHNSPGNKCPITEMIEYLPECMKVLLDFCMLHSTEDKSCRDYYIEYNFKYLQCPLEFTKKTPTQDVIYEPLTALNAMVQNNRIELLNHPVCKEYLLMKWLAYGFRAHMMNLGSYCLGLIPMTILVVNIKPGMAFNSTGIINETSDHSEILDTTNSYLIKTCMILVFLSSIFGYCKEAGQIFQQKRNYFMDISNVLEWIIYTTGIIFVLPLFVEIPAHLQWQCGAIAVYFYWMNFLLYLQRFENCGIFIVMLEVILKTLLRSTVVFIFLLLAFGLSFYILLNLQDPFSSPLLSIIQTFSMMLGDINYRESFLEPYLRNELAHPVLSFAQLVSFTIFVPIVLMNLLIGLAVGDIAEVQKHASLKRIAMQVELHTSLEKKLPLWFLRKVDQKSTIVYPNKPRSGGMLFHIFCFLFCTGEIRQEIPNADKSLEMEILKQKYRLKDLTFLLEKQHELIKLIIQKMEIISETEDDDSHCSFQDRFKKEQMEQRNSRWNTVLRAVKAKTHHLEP

| SMILES | IC50 [nM] |
| --- | --- |
| NS(=O)(=O)c1ccc(-c2cccc(CNC(=O)[C@@H]3CCCN3S(=O)(=O)c3ccc(F)cc3)c2)cc1 [Example 78, 1-(4-Fluorobenzenesulfonyl)-pyrrolidine-2S-carboxylic acid (4′-sulfamoyl-biphenyl-3-ylmethyl)-amide] | 6050 |
| Cc1ccc(-c2cccc(CNC(=O)[C@@H]3CCCN3S(=O)(=O)c3ccc(F)cc3)c2)cc1 [Example 79, 1-(4-Fluoro-benzenesulfonyl)-pyrrolidine-2S-carboxylic acid (4′-methyl-biphenyl-3-ylmethyl)-amide] | 137 |
| COc1ccc(-c2cccc(CNC(=O)[C@@H]3CCCN3S(=O)(=O)c3ccc(F)cc3)c2)cc1 [Example 80, 1-(4-Fluorobenzenesulfonyl)-pyrrolidine-2S-carboxylic acid (4′-methoxybiphenyl-3-ylmethyl)-amide] | 410 |
| O=C(NCc1cccc(-c2ccc(OCC(F)(F)F)cc2)c1)[C@@H]1CCCN1S(=O)(=O)c1ccc(F)cc1 [Example 81, 1-(4-Fluorobenzenesulfonyl)-pyrrolidine-2S-carboxylic acid [4′-(2,2,2-trifluoroethoxy)-biphenyl-3-ylmethyl]-amide] | 93 |
| CSc1ccc(-c2cccc(CNC(=O)[C@@H]3CCCN3S(=O)(=O)c3ccc(F)cc3)c2)cc1 [Example 82, 1-(4-Fluoro-benzenesulfonyl)-pyrrolidine-2S-carboxylic acid (4′-methylsulfanyl-biphenyl-3-ylmethyl)-amide] | 50 |
| O=C(NCc1cccc(-c2ccc(Cl)nc2)c1)[C@@H]1CCCN1S(=O)(=O)c1ccc(F)cc1 [Example 83, 1-(4-Fluoro-benzenesulfonyl)-pyrrolidine-2S-carboxylic acid 3-(6-chloro-pyridin-3-yl)-benzylamide] | 73 |
| COc1ccc(-c2cccc(CNC(=O)[C@@H]3CCCN3S(=O)(=O)c3ccc(F)cc3)c2)cn1 [Example 84, 1-(4-Fluorobenzenesulfonyl)-pyrrolidine-2S-carboxylic acid 3-(6-methoxypyridin-3-yl)-benzylamide] | 340 |
| NC(=O)c1ccc(-c2cccc(CNC(=O)[C@@H]3CCCN3S(=O)(=O)c3ccc(F)cc3)c2)cc1 [Example 85, 1-(4-Fluorobenzenesulfonyl)-pyrrolidine-2S-carboxylic acid (4′-carbamoylbiphenyl-3-ylmethyl)-amide] | 14100 |
| N#Cc1ccc(-c2cccc(CNC(=O)[C@@H]3CCCN3S(=O)(=O)c3ccc(F)cc3)c2)cc1 [Example 86, 1-(4-Fluoro-benzenesulfonyl)-pyrrolidine-2S-carboxylic acid (4′-cyano-biphenyl-3-ylmethyl)-amide] | 85 |
| Cc1ccc(-c2cccc(CNC(=O)[C@@H]3CCCN3S(=O)(=O)c3ccc(F)cc3)c2)cn1 [Example 87, 1-(4-Fluorobenzenesulfonyl)-pyrrolidine-2S-carboxylic acid 3-(6-methylpyridin-3-yl)-benzyl amide] | 1790 |
| O=C(NCc1cccc(-c2ccc(C(F)(F)F)nc2)c1)[C@@H]1CCCN1S(=O)(=O)c1ccc(F)cc1 [Example 88, 1-(4-Fluorobenzenesulfonyl)-pyrrolidine-2S-carboxylic acid 3-(6-trifluoromethylpyridin-3-yl)-benzyl amide] | 17 |
| CC(=O)c1ccc(-c2cccc(CNC(=O)[C@@H]3CCCN3S(=O)(=O)c3ccc(F)cc3)c2)cc1 [Example 89, 1-(4-Fluorobenzenesulfonyl)-pyrrolidine-2S-carboxylic acid (4′-acetylbiphenyl-3-ylmethyl)-amide] | 844 |
| COc1ccc(-c2cccc(CNC(=O)[C@@H]3CCCN3S(=O)(=O)c3ccc(F)cc3)c2)nc1 [Example 90, 1-(4-Fluorobenzenesulfonyl)-pyrrolidine-2S-carboxylic acid 3-(5-methoxypyridin-2-yl)-benzylamide] | 8300 |
| O=C(NCc1cccc(-c2ccc(Cl)cn2)c1)[C@@H]1CCCN1S(=O)(=O)c1ccc(F)cc1 [Example 91, 1-(4-Fluorobenzenesulfonyl)-pyrrolidine-2S-carboxylic acid 3-(5-chloropyridin-2-yl)-benzylamide] | 175 |
| O=C(NCc1cccc(-c2ccc(C(F)(F)F)cn2)c1)[C@@H]1CCCN1S(=O)(=O)c1ccc(F)cc1 [Example 92, 1-(4-Fluorobenzenesulfonyl)-pyrrolidine-2S-carboxylic acid 3-(5-trifluoromethylpyridin-2-yl)-benzylamide] | 17 |
| CN(C)c1ccc(-c2cccc(CNC(=O)[C@@H]3CCCN3S(=O)(=O)c3ccc(F)cc3)c2)cc1 [Example 93, 1-(4-Fluorobenzenesulfonyl)-pyrrolidine-2S-carboxylic acid (4′-dimethylaminobiphenyl-3-ylmethyl)-amide] | 86 |
| O=C(NCc1cccc(-c2ccc(N3CCOCC3)cc2)c1)[C@@H]1CCCN1S(=O)(=O)c1ccc(F)cc1 [Example 94, 1-(4-Fluorobenzenesulfonyl)-pyrrolidine-2S-carboxylic acid (4′-morpholin-4-yl-biphenyl-3-ylmethyl)-amide] | 1630 |

| SMILES | IC50 [nM] |
| --- | --- |
| Cn1ccc2cc(-c3cccc(CNC(=O)[C@@H]4CCCN4S(=O)(=O)c4ccc(F)cc4)c3)ccc21 [Example 96, 1-(4-Fluoro-benzenesulfonyl)-pyrrolidine-2S-carboxylic acid 3-(1-methyl-1H-indol-5-yl)-benzylamide] | 432 |
| O=C(NCc1cccc(-c2ccc(N3CCOCC3)nc2)c1)[C@@H]1CCCN1S(=O)(=O)c1ccc(F)cc1 [Example 97, 1-(4-Fluorobenzenesulfonyl)-pyrrolidine-2S-carboxylic acid 3-(6-morpholin-4-yl-pyridin-3-yl)-benzylamide] | 1710 |
| O=C(NCc1cccc(-c2ccccc2)c1)[C@@H]1CCCN1S(=O)(=O)c1ccc(F)cc1 [Example 98, 1-(4-Fluorobenzenesulfonyl)-pyrrolidine-2S-carboxylic acid (biphenyl-3-ylmethyl)-amide] | 381 |
| O=C(NCc1cccc(-c2ccc3cc[nH]c3c2)c1)[C@@H]1CCCN1S(=O)(=O)c1ccc(F)cc1 [Example 101, 1-(4-Fluorobenzenesulfonyl)-pyrrolidine-2S-carboxylic acid 3-(1H-indol-6-yl)-benzylamide] | 4050 |
| O=C(NCc1cccc(-c2ccc(CN3CCOCC3)cc2)c1)[C@@H]1CCCN1S(=O)(=O)c1ccc(F)cc1 [Example 102, 1-(4-Fluorobenzenesulfonyl)-pyrrolidine-2S-carboxylic acid (4′-morpholin-4-ylmethylbiphenyl-3-ylmethyl)-amide] | 1700 |
| O=C(NCc1cccc(-c2ccc(N3CCCCC3)cc2)c1)[C@@H]1CCCN1S(=O)(=O)c1ccc(F)cc1 [Example 103, 1-(4-Fluoro-benzenesulfonyl)-pyrrolidine-2S-carboxylic acid (4′-piperidin-1-yl-biphenyl-3-ylmethyl)-amide] | 252 |
| CN(C)c1ccc(-c2cccc(CNC(=O)[C@@H]3CCCN3S(=O)(=O)c3ccc(F)cc3)c2)cn1 [Example 104, 1-(4-Fluorobenzenesulfonyl)-pyrrolidine-2S-carboxylic acid 3-(6-dimethylaminopyridin-3-yl)-benzylamide] | 460 |
| O=C(NCc1cccc(-c2cnc3ccccc3c2)c1)[C@@H]1CCCN1S(=O)(=O)c1ccc(F)cc1 [Example 105] | 1030 |
| O=C(NCc1cccc(-c2ccc3ncccc3c2)c1)[C@@H]1CCCN1S(=O)(=O)c1ccc(F)cc1 [Example 106, 1-(4-Fluoro-benzenesulfonyl)-pyrrolidine-2S-carboxylic acid 3-quinolin-6-yl-benzylamide] | 594 |
| O=C(NCc1cccc(-c2ccc3ccccc3n2)c1)[C@@H]1CCCN1S(=O)(=O)c1ccc(F)cc1 [Example 107, 1-(4-Fluoro-benzenesulfonyl)-pyrrolidine-2S-carboxylic acid 3-quinolin-2-yl-benzylamide] | 518 |
| Cn1ccc2ccc(-c3cccc(CNC(=O)[C@@H]4CCCN4S(=O)(=O)c4ccc(F)cc4)c3)cc21 [Example 108, 1-(4-Fluorobenzenesulfonyl)-pyrrolidine-2S-carboxylic acid 3-(1-methyl-1H-indol-6-yl)-benzylamide] | 2530 |
| O=C(NCc1cccc(-c2ccc(C(F)(F)F)cc2)c1)[C@@H]1[C@H]2C[C@H]2CN1S(=O)(=O)c1ccc(F)cc1 [Example 109, 3-(4-Fluorobenzenesulfonyl)-3-aza-1S,5R-bicyclo[3.1.0]hexane-2S-carboxylic acid (4′-trifluoromethylbiphenyl-3-ylmethyl)-amide] | 319 |
| O=C(NCc1cccc(-c2ccc(C(F)(F)F)cc2)c1)[C@@H]1[C@H]2C[C@H]2CN1S(=O)(=O)c1ccc(Cl)s1 [Example 110, 3-(5-Chlorothiophene-2-sulfonyl)-3-aza-1S,5R-bicyclo[3.1.0]hexane-2S-carboxylic acid (4′-trifluoromethylbiphenyl-3-ylmethyl)-amide] | 92 |
| O=C(NCc1cccc(-c2ccc(C(F)(F)F)cc2)c1)[C@@H]1C=CCN1S(=O)(=O)c1ccc(F)cc1 [Example 111, 1-(4-Fluorobenzenesulfonyl)-2,5-dihydro-1H-pyrrole-2S-carboxylic acid (4′-trifluoromethylbiphenyl-3-ylmethyl)-amide] | 14 |
| O=C(NCc1cccc(-c2ccc(C(F)(F)F)cc2)c1)[C@@H]1C=CCN1S(=O)(=O)c1ccc(Cl)s1 [Example 112, 1-(5-Chlorothiophene-2-sulfonyl)-2,5-dihydro-1H-pyrrole-2S-carboxylic acid (4′-trifluoromethylbiphenyl-3-ylmethyl)-amide] | 11 |
| C[C@H](NC(=O)[C@@H]1CCCN1S(=O)(=O)c1ccc(F)cc1)c1cccc(-c2ccc(C(F)(F)F)cc2)c1 [Example 113, (1S,2S)-1-(4-Fluoro-benzenesulfonyl)-pyrrolidine-2-carboxylic acid [1-(4′-trifluoromethyl-biphenyl-3-yl)-ethyl]-amide] | 62 |
